Data taken from article PMC9022420 (Scientific Reports, 2022).

Legend:
[1] = test system: WI-38 cells; test: Light-induced toxicity towards WI-38 cells (MTS); type: cell-based, human; details: 10 μM flavin, 15 min irradiation 1 × 10^5 lx
Description: An adapted method reported by Maisch et al. was used to conduct phototoxicity studies on human lung fibroblasts, WI-38[28]. Cells were seeded into 96-well plates containing 10,000 cells/well in 100 µL complete growth medium and cultured for 24 h at 37 °C and 5% CO2. […] The resulting mixtures were then incubated in the dark for 5 min and then either illuminated with 1 × 10^5 lx for 5, 10 or 15 min, or incubated further in the dark for 15 min (dark control). After irradiation, the flavin solutions were removed and 100 μL of DMEM with 10% FBS and without phenol red was added to each well and incubated over night at 37 °C and 5% CO2. Subsequently, 20 µL of MTS reagent was added into each well and incubated at 37 °C and 5% CO2 for 1–4 h and the absorbance of each well was measured at 490 nm using a plate reader. Control measurements included negative control untreated cells with light and in the dark containing 0.1% DMSO and cells treated with flavins for 15 min in the dark. All experiments were conducted in biological triplicates. The percentage cell viability was calculated according to Eq. (1).

[2] = test system: ssRNA (EGFP-encoding mRNA, ~ 1 k nt); test: ssRNA photocleavage, agarose gel electrophoresis; type: biochemical; details: 10 µM flavin, 15 min white LED, PBS 0.1% DMSO
Description: (§1) A 20 µL aliquot was taken after 15 min of white LED irradiation (1 × 10^5 lx). Prior to loading, 2 µL of 6X Orange-G loading dye in glycerol were added to the aliquot and mixed vigorously. The gel was electrophoresed at 80 V for 35 min with 1% agarose gels in 1X Tris–acetate-EDTA (TAE) buffer. Gels were then imaged in a Syngene G:BOX Gel Documentation System and band % quantification was performed using ImageJ Gel Analyzer.

[3] = Flavin photostability in PBS under white LED irradiation; type: physicochemical; details: 30 min, 100 µM, pH 7.4
Excerpt: After successful synthesis and initial characterisation, we monitored the photostability of the compounds in PBS (1x, pH 7.4) which was used for PDI assays as distilled or ultrapure water destabilises bacterial cells and coronaviruses through osmotic pressures[37],[38], thereby augmenting inactivation results. […] This yields lumichrome as the major degradation product which can only act as a PS under UV-irradiation[40]. […] However, it appears that guanidino substitution in our case improves the photostability.
Figure S4: (A) Flavin photostability (100 µM) in PBS (0.1% DMSO) irradiated with 1x105 lx (35 mW/cm2) where A
= Abs at 450 nm and A0 = Abs at 450 nm at 0 min.
photostability. Experiments were performed using a quartz cuvette and measured using an Agilent Cary 300
(1 picture or pasted object on this page, not shown here)

[4] = test system: murine hepatitis virus A59 strain (MHV-A59); test: Photodynamic inactivation of MHV-A59 (TCID50 assay in 17Cl-1 cells); type: cell-based
Description: The efficacy of the flavins were enumerated utilizing modified methods from ISO 18,184 and Leibowitz et al.[56] […] 100 µM working stock solutions were then created by diluting each DMSO solution into PBS. To control for the effect of DMSO on MHV-A59, DMSO was diluted into PBS at the same concentration. A white light apparatus was set up to cover a 4 × 5 (row x column) area of a 96-well plate with the same level of light intensity (1 × 10^5 lx). The stock solutions were then diluted in replicates of four to a total of 180 µl in PBS at 1, 5, and 10 µM concentrations for each sample. Virus stocks of MHV-A59 were thawed on ice prior to use. 20 µl of MHV-A59 stock (1.4 × 10^9 PFU/ml) was then mixed into each well, and the 4 × 5 well matrix was treated with the light or incubated in the dark at room temperature for a specified time (5, 10, or 15 min).
After treatment, the samples were mixed into 320 µl of Gibco Difco™ Beef Extract (1.5% w/v beef extract in ddH2O; Life Technologies) and rolled for 15 min to chelate any free ions in the solution. The samples then were serially diluted (10^0–10^–7) in infectivity media (Dulbecco’s modified Eagle’s medium low glucose 1 g/L (DMEM, Life Technologies) supplemented with 2.5% fetal bovine serum (Merck), 3% tryptose phosphate broth (Merck), 1 × non-essential amino acids (Gibco), 1 × antibiotic–antimycotic (Thermo Fisher Scientific) and 1 × L-Glutamine (Gibco]) and added in triplicate to 17Cl-1 cell plates. For each sample or control there were 4 replicate treatments (in light or dark); each treatment replicate was plated in triplicate. Infected 17Cl-1 plates were incubated at 37 °C in a 5% CO2 atmosphere for 24 h. Plates were scored for cytopathic effect (CPE) by microscopy and viral titres were determined by the Reed and Muench 50% tissue culture infectious dose (TCID50) end point method. Outliers were removed from the four replicates using an outlier test. The full protocol was repeated in triplicate on different days to account for any variability in the assay.

[5] = test system: WI-38 cells; test: 24 h MTS cytotoxicity assay, WI-38; type: cell-based; details: Homo sapiens, 24 h incubation, dark
Description: (§2) The MTS tetrazolium compound is reduced by cells into a coloured formazan product which is soluble in cell culture media. It can be detected colorimetrically between 450 and 540 nm with the measured absorbance directly proportional to the amount of metabolically active cells in culture. Cells were seeded into clear 96-well plates containing 10,000 cells/well in 100 µL complete growth medium and cultured for 24 h at 37 °C and 5% CO2. […] After further 24 h incubation at 37 °C and 5% CO2, 20 µL of CelTiter 96® AQueous One Solution (Promega) was added into each well and incubated at 37 °C, 5% CO2 for 1–4 h, according to the manufacturer’s instruction. The absorbance of each well was measured at 490 nm using a plate reader (Spark, Tecan). Control measurements included negative control of cells with DMEM, cells with DMEM containing 0.1% DMSO, cell-free culture media (blank) and cell-free sample dilutions in culture media to evaluate potential sample interferences with MTS assay. All experiments were conducted in biological triplicates. The percentage cell viability was calculated according to Eq. (1):1 Cell viability(%)=100×Absorbanceoftreatedcells-Absorbanceofblank/Absorbanceofcontrol-Absorbanceofblank

[6] = test system: 17Cl-1 cells; test: 24 h MTS cytotoxicity assay, 17Cl-1; type: cell-based, murine; details: Mus musculus, 24 h incubation, dark
Description: as §2

[7] = test system: E. coli BL21(DE3); test: Photodynamic inactivation of E. coli (CFU counting); type: cell-based
Description: After an overnight aerobic culture in LB broth at 37 °C with shaking at 225 rpm, the resulting E. coli were centrifuged at 2,500 rpm for 10 min. The pellet was resuspended in PBS (Sigma, 1x, pH 7.4) to an OD600 value of 0.6 (~ 1 × 10^8 bacteria per ml). […] Aliquots of negative controls (0.5% DMSO in PBS; PBS only) and 100 μM flavin-bacteria samples were covered in foil to remain in dark, while all samples were plated onto a 96-well plate and exposed to white LED irradiation (1 × 10^5 lx) for 15 min. After 15 min of irradiation or darkness, each sample was serially diluted to its respective, appropriate dilution and plated onto an LB agar plate with 50 μg/mL kanamycin. Plates were incubated overnight at 37 °C in the dark. Survival of bacteria was determined by counting colony forming units (CFUs) the next day.
For time point data, aliquots of 100 μM flavin-bacteria solutions were taken at 5-min increments of irradiation (0, 5, 10, and 15 min) and evaluated similarly as above. Time point experiment with one-minute increments, between 0 and 5 min, were conducted for 100 μM F4-bacteria samples.

[8] = test system: pDNA (pUC18); test: pDNA photocleavage, agarose gel electrophoresis; type: biochemical; details: 10 µM flavin, 15 min white LED, PBS 0.1% DMSO
Description: as §1

[9] = 5 µM flavin, 10 min irradiation

With `Cc1cc2nc3c(=O)[nH]c(=O)nc-3n(C[C@H](O)[C@H](O)[C@H](O)CO)c2cc1C` [Riboflavin, reference compound] the “reduction in cell viability (light-induced toxicity)” value [1] was “no decrease in cell viability”, the “% cleaved ssRNA” value [2] was 28% and the photodecomposition / degradation [3] was 80%. The “MHV-A59 log10 reduction in viral titre” value ([4]; 1 µM flavin, 10 min irradiation (21.0 J/cm^2)) was 1.2 log10, the “MHV-A59 log10 reduction in viral titre” value [4, 9] was 3.2 log10 and the “MHV-A59 viral load reduction” value [4, 9] was greater than 99.9%. For the same compound, the “MHV-A59 log10 reduction in viral titre” value ([4]; 10 µM flavin, 5 min irradiation (10.5 J/cm^2)) was 2.7 log10, the “MHV-A59 log10 reduction in viral titre” value ([4]; 10 µM flavin, 10 min irradiation) was 3.4 log10 and the “MHV-A59 log10 reduction in viral titre” value ([4]; 10 µM flavin, 15 min irradiation (31.5 J/cm^2)) was 3.7 log10. For the same compound, the IC50 [5] was greater than 100 µM, the IC50 [6] was greater than 100 µM and the “E. coli log10 reduction of CFUs” value ([7]; 1 µM flavin, 15 min irradiation (31.5 J/cm^2)) was 0.2 log10. The “E. coli log10 reduction of CFUs” value ([7]; 1 µM flavin, 15 min irradiation (31.5 J/cm^2), listed as riboflavin) was “no inactivation”, the “E. coli log10 reduction of CFUs” value ([7]; 10 µM flavin, 15 min irradiation) was 0.2 log10 and the “E. coli log10 reduction of CFUs” value ([7]; 100 µM flavin, 5 min irradiation (10.5 J/cm^2)) was 0.0 log10. For the same compound, the “E. coli log10 reduction of CFUs” value ([7]; 100 µM flavin, 10 min irradiation) was 0.0 log10, the “E. coli log10 reduction of CFUs” value ([7]; 100 µM flavin, 15 min irradiation) was 0.0 log10 and the “E. coli log10 reduction of CFUs” value ([7]; 100 µM flavin, 15 min irradiation, listed as riboflavin) was “no activity”. For the same compound, the “% NC (nicked coiled pDNA after photocleavage)” value [8] was 11%.
